US20230321055A1, “PREVENTIVE TREATMENT OF MIGRAINE” (priority 2022, published 2023)

How the values were obtained:
[1] = system: participants with CM and moderate to severe symptoms of depression; test: Same phase 3 study: analysis of participants with chronic migraine and moderate to severe symptoms of depression (PHQ-9 ≥10); assay type: in vivo, human; design: MSQ v2.1 RFR, Change from baseline, mean / MSQ v2.1 RFP, Change from baseline, mean / MSQ v2.1 EF, Change from baseline, mean / MSQ v2.1 RFR, MMRM, LS mean change / MSQ v2.1 RFP, MMRM, LS mean change / MSQ v2.1 EF, MMRM, LS mean change / HIT-6, Change from baseline, mean / HIT-6, MMRM, LS mean change: scale not given here; details: 60 mg QD
Text: Depression is a common comorbidity in people with migraine and is a risk factor for transformation of EM to CM. Depressive symptoms predict increases in headache-related disability and poor health-related quality of life (HRQoL) in people with migraine. Thus, trial data analysis was used to evaluate the effect of atogepant in participants with CM and baseline symptoms of moderate to severe depression. Specifically, analysis of trial data evaluated the impact of atogepant on change in monthly migraine days, ≥50% and ≥75% responder rates, change in MSQ v2.1 domain scores, and PGIC in participants with CM and moderate to severe depression symptomology. PHQ-9 is a validated, screening and diagnostic tool designed to improve the recognition rate of depression and facilitates diagnosis and treatment. A cut-off score of ≥10 was used to identify participants with moderate or severe depressive symptoms, to determine eligibility and as a continuous outcome to measure changes in depression. As disclosed hereinabove, the MSQ v2.1 is a 14-item measure of health-related quality of life evaluating impacts attributed to migraine over the past 4 weeks and comprises three domains: Role Function-Restrictive (RFR), Role Function-Preventive (RFP), and Emotional Function (EF). PGIC is a single item used to measure the subject's impression of overall change in migraine since the first dose of study intervention. Findings for the atogepant 60 mg QD dose are presented herein. […] For the endpoint change from baseline in monthly migraine days and each MSQ v2.1 domain score, the comparison between treatment groups was analyzed using a restricted maximum likelihood-based mixed model for repeated measures (MMRM). Logistic regression models were used to analyze PGIC responder at week 12 and ≥50% or 75% responder rates across 12-week double-blind treatment period. ANCOVA model was used to analyze change from baseline in PHQ-9 score at week 12.
Analysis of trial data evaluated the impact of atogepant on headache day reduction, moderate/severe headache days, acute medication use day reduction, impacts of headache and migraine as evaluated by the HIT-6 and AIM-D, and symptoms of moderate to severe depression as measured by PHQ-9. A cut-off score of ≥10 was used to identify participants with moderate or severe depressive symptoms, to determine eligibility and as a continuous outcome to measure changes in depressive symptoms. Findings for the atogepant 60 mg QD dose are presented here. Similar results for the 30 BID dose (excluded for simplicity). For endpoints other than PHQ-9, the comparison between treatment groups were analyzed using a restricted maximum likelihood-based mixed model for repeated measures (MMRM). ANCOVA model was used to analyze PHQ-9 related endpoints.

[2] = oral administration; cited from earlier work
[3] = across the 12-week treatment period, mITT, PHQ-9 ≥10 subgroup (n = 109)
[4] = mITT, PHQ-9 ≥10 subgroup (n = 109)
[5] = mITT, PHQ-9 ≥10 subgroup (n = 109), 12-week treatment period
[6] = week 12, mITT, PHQ-9 ≥10 subgroup (n = 109)

## C[C@@H]1[C@H](c2c(F)ccc(F)c2F)C[C@H](NC(=O)c2cnc3c(c2)C[C@@]2(C3)C(=O)Nc3ncccc32)C(=O)N1CC(F)(F)F [Atogepant, (S)—N—((3S,5S,6R)-6-methyl-2-oxo-1-(2,2,2-trifluoroethyl)-5-(2,3,6-trifluorophenyl)piperidin-3-yl)-2′-oxo-1′,2′,5,7-tetrahydrospiro[cyclopenta[b]pyridine-6,3′-pyrrolo[2,3-b]pyridine]-3-carboxamide]
[1]; [3]
  AIM-D PDA, Change from baseline, mean: −16.09
  AIM-D PDA, LSMD vs placebo: −5.91
  AIM-D PDA, MMRM, LS mean change: −13.50
  AIM-D PI, Change from baseline, mean: −13.84
  AIM-D PI, LSMD vs placebo: −4.63
  AIM-D PI, MMRM, LS mean change: −11.68
[1]; [4]
  AIM-D PDA, Months 1-3, mean: 22.29
  AIM-D PI, Months 1-3, mean: 20.07
  Monthly Acute Medication Use Days, Post-baseline (Month 1-3), mean: 9.51
  Monthly Headache Days, Post-baseline (Month 1-3), mean: 15.24
  Monthly Migraine Days, Post-baseline (Month 1-3), mean: 12.90
  Monthly Moderate/Severe Headache Days, Post-baseline (Month 1-3), mean: 10.22
  PHQ-9, Week 12, mean: 8.81
  ≥50% Responders, Odds ratio vs placebo: 3.70
  ≥75% Responders, Odds ratio vs placebo: 13.64
[1]; [5]
  Monthly Acute Medication Use Days, Change from baseline, mean: −7.52
  Monthly Acute Medication Use Days, LSMD vs placebo: −3.53
  Monthly Acute Medication Use Days, MMRM, LS mean change: −6.57
  Monthly Headache Days, Change from baseline, mean: −6.94
  Monthly Headache Days, LSMD vs placebo: −2.86
  Monthly Headache Days, MMRM, LS mean change: −6.52
  Monthly Migraine Days, Change from baseline, mean: −7.23
  Monthly Migraine Days, LSMD vs placebo: −3.04
  Monthly Migraine Days, MMRM, LS mean change: −6.71
  Monthly Moderate/Severe Headache Days, Change from baseline, mean: −7.34
  Monthly Moderate/Severe Headache Days, LSMD vs placebo: −2.68
  Monthly Moderate/Severe Headache Days, MMRM, LS mean change: −6.77
[1]; mITT, PHQ-9 ≥10 subgroup (n = 109), listed as atogepant
  ≥50% Responders, Odds ratio vs placebo: 3.7
[1]; week 12, PHQ-9 ≥10 subgroup
  PGIC much better or very much better, OR vs placebo: 2.52
[1]; [6]
  HIT-6, Change from baseline, mean: −8.73
  HIT-6, LSMD vs placebo: −3.18
  HIT-6, MMRM, LS mean change: −8.37
  HIT-6, Post-baseline, mean: 57.68
  MSQ v2.1 EF, Change from baseline, mean: 30.17
  MSQ v2.1 EF, LSMD vs placebo: 9.24
  MSQ v2.1 EF, MMRM, LS mean change: 28.19
  MSQ v2.1 EF, Post-baseline, mean: 70.79
  MSQ v2.1 RFP, Change from baseline, mean: 24.95
  MSQ v2.1 RFP, LSMD vs placebo: 8.89
  MSQ v2.1 RFP, MMRM, LS mean change: 22.91
  MSQ v2.1 RFP, Post-baseline, mean: 73.71
  MSQ v2.1 RFR, Change from baseline, mean: 28.04
  MSQ v2.1 RFR, LSMD vs placebo: 8.77
  MSQ v2.1 RFR, MMRM, LS mean change: 25.56
  MSQ v2.1 RFR, Post-baseline, mean: 61.53
  PHQ-9, ANCOVA, LS mean change: −5.11
  PHQ-9, Change from baseline, mean: −5.61
  PHQ-9, LSMD vs placebo: −1.38
[2]
  half-life: approximately 11 hours
  time to maximum plasma concentrations: ≤ 2 h
